Assay results from patent US20210145830A1, “MATERIALS AND METHODS FOR TREATING CANCER” (Mayo Foundation for Medical Education and Research, priority 2018, published 2021).

How the values were obtained:
[1] = test system: Blood T cells; assay: Correlative analysis of blood T cells in Phase I trial of TP0903 (NCT02729298); assay type: in vivo, patients with solid tumors
Text: FIG. 20. Multiparametric flow cytometric analysis of peripheral blood samples obtained before and after TP0903 treatment in patients with advanced solid tumors. A. Representative CD4^+CD25^+Foxp3^+ regulatory T cells (Treg) (upper right quadrants) at baseline (left) and after treatment (right). Data were pooled from three independent experiments with peripheral blood mononuclear cells from three donors. B. Representative flow plot of CD4^+ and CCR6^− negative cells.
The preclinical findings were validated in a correlative analyses of Phase I clinical trial of TP0903 for patients with solid tumors (NCT02729298). Blood T cells from 3 patients were isolated and analyzed before and a week after treatment with TP0903. […] These findings are further investigated in a Phase I clinical trial of TP0903 in relapsed/refractory CLL (NCT03572634).

[2] = test system: regulatory CART cells; assay: Regulatory CART cells in CART19 co-culture with targets; assay type: cell-based; details: increasing doses of TP0903; CART19 co-cultured with targets
Text: FIG. 17. Increasing doses of TP0903 reduced regulatory CART cells when CART19 are co-cultured with their targets.

[3] = test system: CART19 and UTDs; assay: Ex vivo T cell expansion and CART generation with TP0903; assay type: cell-based; details: low dose TP0903 during ex vivo manufacture
Text: FIG. 14 contains graphs showing CART19 or untransduced T cell expansion with or without varied concentrations of TP0903. Low dose TP0903 enhanced the expansion of CART19 and UTDs during ex vivo manufacture of CARTs.
The murine anti-CD19 chimeric antigen receptor (single chain variable fragment derived from clone FMC63, CD8 hinge, 4-1BB costimulatory domain and CD3 zeta signaling domain) was generated de novo and cloned into a third generation lentivirus. Normal donor T cells were […] selected using negative selection Kit (Stem Cell), and expanded in vitro using anti-CD3/CD28 Dynabeads (Invitrogen, Life Technologies, Grand Island, N.Y., USA, added on the first day of culture). T cells were transduced with lentiviral supernatant one day following stimulation at a multiplicity of infection (MOI) of 3. The anti-CD3/CD28 Dynabeads were removed on day 6 and T cells were grown in T cell media (X-vivo 15 media, human serum 5%, penicillin, streptomycin and glutamax). CART cells were then cryopreserved on day 8 for future experiments. Prior to all experiments, T cells were thawed and rested overnight at 37° C.
CART cells were generated with increasing doses of TP0903. T cells were isolated (negative selection, STEM CELL kit) and stimulated with CD3/CD28 beads on day 0. On day 1, T cells were transduced with CAR19 lentivirus at MOI of 3. […]

[4] = test system: Naïve T cells; assay: Naïve T cell proliferation assay (PMA/Ionomycin); assay type: cell-based; details: PMA 5 ng/ml + Ionomycin 0.1 μg/ml; TP0903 10-65 nM; 3 days
Description: FIG. 21A-E. TP0903 modulates naïve T cells function upon stimulation of PMA/Ionomycin in vitro. A. Naïve T cell proliferation assay in the presence of TP0903. Naïve T cells were stimulated with 5 ng/ml of PMA and 0.1 μg/ml of Ionomycin in the absence or in the increasing dose of TP0903 (10-65 nM) for 3 days. […] B. At the end of the expansion on day 3, T cells were stained with inhibitory receptors. […] C. Naïve T cell degranulation assay and cytokine production in the presence of TP0903. Naïve T cells were stimulated with 50 ng/ml of PMA and 1 μg/ml of Ionomycin for 4 hours in the presence of increasing doses of TP0903 (10-65 nM). […] D. Western blot analysis of p-LCK and GATA-3 inhibition by TP0903 in naïve T cells. Naïve T cells were stimulated with 5 ng/ml of PMA and 0.1 ug/ml of Ionomycin in the absence (DMSO) or in the increasing dose of TP0903 (10-65 nM) for 24 hours. […] was used as loading control. E. TP0903 specifically reduces regulatory T cells (Treg). Effector T cells (Teff) were isolated by negative selection using RoboSep™ Human T Cell Isolation Kit (Stemcell Technologies). Tregs were isolated by negative selection using the human CD4^+CD127^lowCD25^+ Treg isolation kit (Stemcell Technologies). Teff and Treg were stimulated with anti-CD3/CD28 beads and 400 U/ml of IL-2. At day 5, total T cells were evaluated via CountBright quantification.

[5] = test system: CART19 cells; assay: Th2/Th1 T cell subtype analysis during CART19 expansion; assay type: cell-based; details: irradiated JeKo-1; TP0903 10-30 nM; day 3
Description: FIG. 22A-C. In vitro experiment for the combination of CART19 and TP0903. A. CART19 were cocultured at different effector-to-target ratio (E:T) with luciferase-positive JeKo-1. At 48 hours, cell killing was assessed by luminescence. […] The means and SEM are shown (**, p<0.005, *, p<0.05, one-way ANOVA analysis). n.s., not statistically significant. B. CART19 degranulation assay and cytokine production in the presence of TP0903. CART19 were cocultured with JeKo-1 for 4 hours in the presence of TP0903 doses of TP0903 (10-65 nM). […] C. Th2/Th1 T cell subtype analysis during CART19 expansion in the presence pf TP0903. CART19 cells were stimulated with lethally irradiated (120 Gy) JeKo-1 cell lines in the presence of increasing doses of TP0903 (10-30 nM). At the day 3, Th1 and Th2 cells were defined using CD4, CCR6, CCR4 and CXCR3 expression. […] The means and SEM are shown (*, p<0.05, one-way ANOVA analysis). n.s., not statistically significant.

[6] = 3 patients, before vs a week after treatment
[7] = CD4+ CCR6− cells, after TP0903 treatment

What does the source list for `CN1CCN(Cc2ccc(Nc3ncc(Cl)c(Nc4ccccc4S(=O)(=O)N(C)C)n3)cc2)CC1` [TP0903]?
Th phenotype [1, 6]: polarization to a Th1 phenotype; Tregs [1, 6]: significant reduction; inhibitory receptors [1, 6]: reduction; CXCR3+CCR4+ (double positive) fraction [1, 7]: increase; CXCR3−CCR4+ fraction (Th2) [1, 7]: Remarked reduction; regulatory CART cells [2]: reduced; T cell expansion ex vivo and CART cell generation (CART19 and UTDs) [3]: enhanced; T cell expansion [4]: did not interfere; Th1/Th2 phenotype (CD4, CCR6, CCR4, CXCR3) [5]: major shift toward Th1 phenotype
